# According to patent US20210052741A1, “GENE THERAPY METHODS AND COMPOSITIONS USING AUXOTROPHIC REGULATABLE CELLS” (AUXOLYTIC LTD, priority 2018, published 2021):
# Several values for one entry are separate records, joined by “and”; a condition that tells them apart may be missing. Equal entries are not always repeated.
# B1: UMPS-7: sgRNA for UMPS exon 1, target sequence + PAM … TGG (SEQ ID NO: 5); gRNA SEQ ID NO: 1 (nucleic acid)
# guide: GCCCCGCAGAUCGAUGUAGAGUUUUAGAGCUAGAAAUAGCAAGUUAAAAUAAGGCUAGUCCGUUAUCAACUUGAAAAAGUGGCACCGAGUCGGUGCUUUU
# modifications: listed as RNA, chemistry not given here
# Tests used:
# [1] = tested on: CCR5 knockout T cells; assay: Growth time course with/without UMP or uridine; format: cell-based, human; conditions: metabolite 250 μg/ml
# Method: (§1) Genomic DNA was harvested using QUICKEXTRACT™ DNA Extraction Kit (Epicentre). Cells were counted on an automated cell counter using Trypan blue staining or on a CytoFLEX flow cytometer (Beckman Coulter) with automatic plate reader using COUNTBRIGHT™ beads (ThermoFisher) as a reference for normalizing the values. Alternatively, cells were analyzed after staining with fluorochrome-labelled antibodies (Biolegend) on an ACCURI™ C6 flow cytometer (BD Biosciences), which also measures volumes, or a FACS ARIA™ II SORP cell sorter (BD Biosciences). Data was analyzed using Excel (Microsoft) and FlowJo software (Tree Star).
# (§2) T Cells were electroporated and edited as in Example 2 and allowed to recover for a 4-day period in medium with serum, uridine, and UMP. On day 4, cells were shifted to UMP, uridine, or uracil source media.
# (§3) To evaluate whether the UMPS knockout leads to differential cell proliferation if cultured without the addition of Uridine or Uridine monophosphate (UMP), the cell counts in culture were followed over time by automatic cell counting with Trypan blue staining. UMPS knockout led to lower cell counts from day 2 after electroporation, compared to cells that were mock electroporated or electroporated using Cas9 targeting a different genomic locus (i.e., CCR5) (FIG. 5B).
# [2] = tested on: Mock T cells; assay: Growth time course with/without UMP or uridine; format: cell-based, human; conditions: metabolite 250 μg/ml
# Method: as §1, §2, §3
# [3] = tested on: UMPS knockout T cells; assay: Growth time course with/without UMP or uridine; format: cell-based, human
# Method: as §1, §2, §3
# [4] = tested on: UMPS edited T cells; assay: TIDE analysis of UMPS InDels in mixed UMPS edited population; format: cell-based, human
# Method: Sanger sequencing of the UMPS locus was performed using UMPS-O-1 and UMPS-O-2, with the region amplified using PHUSION™ Hot Start Flex 2x Master Mix (New England Biolabs, Inc.). Sanger sequencing traces were analyzed by TIDE analysis (see, Brinkman et al, 2014, Nucleic Acids Res. 42(22):e168), which is hereby incorporated by reference in its entirety) to identify insertions and deletions (InDels) after editing. InDel quantification was performed on the sequences using the TIDE online tool (www.deskgen.com/landing/tide.html) (See, M. Sadelain, N. Engl. J. Med. 365, 1735-7 (2011), which is hereby incorporated by reference in its entirety.
# T Cells were electroporated and edited as in Example 2 and allowed to recover for a 4-day period in medium with serum, uridine, and UMP. On day 4, cells were shifted to UMP, uridine, or uracil source media. […]
# To confirm the results on the genomic level, genomic DNA was harvested at the end of the experiment and InDels were quantified (FIG. 5D-FIG. 5E). FIG. 5D compares the frequency of InDels in different culture conditions for cells not exposed to 5-FOA.
# [5] = tested on: Mock T cells; assay: 5-FOA selection, cell counts after 4 days; format: cell-based, human
# Method: (§4) 5-FOA selects for uracil auxotrophic cells in other organisms (e.g. Boeke et al. 1984, Mol. Gen. Genet. 197(2):345-6), which is hereby incorporated by reference in its entirety). To investigate the potential utility of 5-FOA for the selection of uracil auxotrophs among human cells, the UMPS gene was targeted in human T cells by Cas9-gRNA complex electroporation followed by recovery (as shown in Example 2) followed by an assay of resistance to 5-FOA treatment (FIG. 3A). Cells were grown in 5-FOA and a variety of combinations of serum and uracil sources for 4 days before cell counting was performed.
# [6] = tested on: UMPS-7 targeted T cells; assay: 5-FOA selection, cell counts after 4 days; format: cell-based, human
# Method: as §4
# [7] = tested on: UMPS knockout T cells; assay: Uracil auxotrophy growth assay after 5-FOA selection; format: cell-based, human; conditions: after 4 days 5-FOA selection, 4 days in supplemented media, without serum
# Method: To assay whether or not the cells selected for by 5-FOA treatment were uracil auxotrophs, mock or UMPS targeted T cells were exposed to 5-FOA as shown in Example 4. Following 4 days of 5-FOA selection, the population of cells was split into an uracil containing media (UMP, uridine or both) and an uracil deficient media. A growth assay was subsequently performed by cell counting after following 4 days incubation in test media (Day 8) (FIG. 4A). In all cases, cell growth in the mock targeted cell cultures was negligible and independent of uracil source supplementation—indicating successful killing of non-UMPS targeted cells during the 5-FOA selection step (FIG. 4B-FIG. 4D).
# [8] = tested on: UMPS locus; assay: InDel quantification by ICE and ICE-D in activated T cells; format: cell-based, human; conditions: for ICE InDels (%) / ICE-D InDels (%): Cas9 RNP electroporated into activated T cells, 4 days
# Description: sgRNAs were acquired with chemical modifications from Synthego Corporation. The sgRNAs were complexed with Cas9 protein (IDT) at a molar ration of 2.5:1 (sgRNA:protein) and electroporated into activated T cells using a 4D-NUCLEOFECTOR™ system (Lonza). 4 days later, cells were harvested, and genomic DNA extracted using QUICKEXTRACT™ DNA Extraction Kit (Epicentre) according to the manufacturer's protocol. The sgRNA target site was amplified with specific primers (Table 18) and the amplicon sequenced by Sanger sequencing (MCLab, South San Francisco).
# InDel quantification was performed on the sequences using the interference of CRISPR edits (ICE) and ICE-D online tools (ice.synthego.com) (FIG. 5A).
# [9] = tested on: UMPS^KO/KO engineered hES cells; assay: Teratoma formation from engineered hES cells; format: in vivo, NSG mice
# Method: To determine whether the safety switch can eradicate teratomas that originate from pluripotent cells, iPSCs or ES cells that were genetically modified (or control cells) were transplanted into mice. The cells expressed luciferase for in vivo detection. 1×10^6 UMPS-engineered hESCs were resuspended in a 100 μl of […]® protein mixture (Corning, Inc.) and PBS mixture and injected into the gastrocnemius muscle of the right hind leg of anesthetized NSG mice. The mice were followed up for tumor formation by tumor size measurement and by bioluminescence imaging. After establishment of tumors, whether withdrawal of Uridine triacetate (UTA) led to tumor regression was tested. At the endpoint (tumor sizes above 1.7 cm or impairment of mouse activity, otherwise 24 weeks) tumor was explanted and fixated for histological analysis.
# Auxotrophic cell proliferation of the UMPS^KO/KO engineered hES cells in vivo was also analyzed. […] Bone marrow is analyzed at the time that the animal dies or is sacrificed (latest 16 weeks after injection). […] Groups were compared by statistical tests as indicated using Prism 7 (GraphPad).
# [10] = cited from earlier work
# [11] = tested on: UMPS^KO/KO K562 cells; assay: K562 xenograft model, bioluminescence imaging; format: in vivo, NSG mice; conditions: subcutaneous xenograft, food with 8% UTA vs food without UTA
# Description: (§5) For the K562 xenograft assay, 6 to 12 weeks old male NOD SCID gamma mouse (NSG) mice were transplanted with 1×10^6 K562 cells resuspended in […]® protein mixture (Corning, Inc.) 1:1 diluted with PBS under anesthesia. All animals were kept and handled according to institutional guidelines and the experimental protocol was approved by Stanford University's Administrative Panel on Laboratory Animal Care.
# (§6) The previously engineered UMPS^KO/KO K562 cell line expressing firefly luciferase (FLuc) was used in a xenograft model in NSG mice. […] Cas9 RNP is targeted to exon 1 of the HBB locus with a guide RNA and a DNA donor template transduced by rAAV6 which carries a FLuc-2A-GFP-polyA cassette under control of the SFFV promoter. FACS analysis was performed four days after targeting of K562 cells to evaluate GFP expression before sorting of the GFP+ population. In a control group administered the AAV only, 1.61% of the cells were GFP+, and […].
# (§7) UTA was acquired from Accela ChemBio Inc. and added to make the 8% (w/w) to Teklad mouse food (Envigo) and the food irradiated before use. […]
# (§8) UMPS^KO/KO K562 cells or control cells were transplanted subcutaneously and observed weekly with bioluminescence imaging. Luminescence imaging of K562 cells was performed 5 minutes after intraperitoneal (ip) injection of 125 mg/kg D-Luciferin (PerkinElmer) on an IVIS Spectrum imaging system (PerkinElmer). […]
# [12] = tested on: UMPS wild-type K562 cells; assay: K562 xenograft model, bioluminescence imaging; format: in vivo, NSG mice; conditions: subcutaneous xenograft, normal or UTA supplemented food
# Description: as §5, §6, §7, §8
# [13] = UMPS knockout, metabolite 250 μg/ml
# [14] = cells not exposed to 5-FOA, end of experiment, metabolite 250 μg/ml
molecule,measurement,setting,value
"O=c1ccn([C@@H]2O[C@H](COP(=O)(O)O)[C@@H](O)[C@H]2O)c(=O)[nH]1 [UMP, Uridine monophosphate]","Cell density, Day 1",[1],1.02E+06 cells per ml
same,"Cell density, Day 2",[1],1.80E+06 cells per ml
same,"Cell density, Day 4",[1],3.32E+06 cells per ml
same,"Cell density, Day 6",[1],3.80E+06 cells per ml
same,"Cell density, Day 8",[1],4.03E+06 cells per ml
same,"Cell density, Day 1",[2],9.83E+05 cells per ml
same,"Cell density, Day 2",[2],2.01E+06 cells per ml
same,"Cell density, Day 4",[2],3.80E+06 cells per ml
same,"Cell density, Day 6",[2],4.18E+06 cells per ml
same,"Cell density, Day 8",[2],3.90E+06 cells per ml
same,"Cell density, Day 1",[3]; [13],8.74E+05 cells per ml
same,"Cell density, Day 2",[3]; [13],1.86E+06 cells per ml
same,"Cell density, Day 4",[3]; [13],3.47E+06 cells per ml
same,"Cell density, Day 6",[3]; [13],3.88E+06 cells per ml
same,"Cell density, Day 8",[3]; [13],3.63E+06 cells per ml
same,"Number of viable cells per ml, Day 1",[3]; [13],874000 cells per ml
same,"Number of viable cells per ml, Day 2",[3]; [13],1860000 cells per ml
same,"Number of viable cells per ml, Day 4",[3]; [13],3470000 cells per ml
same,"Number of viable cells per ml, Day 6",[3]; [13],3880000 cells per ml
same,"Number of viable cells per ml, Day 8",[3]; [13],3630000 cells per ml
same,growth of UMPS edited culture,[3]; exogenous uracil source 250 μg/ml,rescued the growth of an UMPS edited culture to the same level as mock edited cells
same,cell proliferation after UMPS knockout,[3]; supplemented at 250 μg/ml,not impaired
same,"Alleles with frameshift InDels, Percent of alleles (without 5-FOA)","[4]; TIDE, day 8, metabolite 250 μg/ml",46.1%
same,"Alleles with InDels, Percent of alleles (without 5-FOA)","[4]; TIDE, metabolite 250 μg/ml",71.1%
same,"frameshift InDel frequency, Percent",[4]; [14],46.1%
same,"overall InDel frequency, Percent (%)",[4]; [14],71.1%
same,"Predicted viable cell counts, Cells with In-frame InDel","[4]; day 8, metabolite 250 μg/ml",908000
same,"Predicted viable cell counts, Cells with frameshift InDel","[4]; day 8, metabolite 250 μg/ml",1670000
same,"Predicted viable cell counts, Cells without InDel","[4]; day 8, metabolite 250 μg/ml",1049070
same,Average of cells per volume unit,"[5]; Mock, 4 days in 5-FOA without serum, with substrate",24770.99 cells per volume unit
same,survival in 5-FOA compared to control,[5]; mock treated cells,improved the survival
same,survival in 5-FOA compared to control,[6]; UMPS targeted cells,improved the survival
same,Average of cells per volume unit,"[6]; UMPS-7, 4 days in 5-FOA without serum, with substrate",58299.26 cells per volume unit
same,Cells counts on Day 8,[7],9978 and 6392
"UMPS-6: sgRNA for UMPS exon 1, target sequence + PAM GGCGGTCGCTCGTGCAGCTT TGG (SEQ ID NO: 6) (guide GGCGGTCGCTCGTGCAGCTTTGG; listed as DNA, chemistry not given here; the letters are possibly those of the target site; listed as Homo sapiens)",ICE InDels (%),[8],12%
same,ICE-D InDels (%),[8],11%
"UMPS-3: sgRNA for UMPS exon 1, target sequence + PAM CCCCGCAGATCGATGTAGAT GGG (SEQ ID NO: 4) (guide CCCCGCAGATCGATGTAGATGGG; target sequence plus PAM, further chemistry not given here; listed as Homo sapiens)",ICE InDels (%),[8],45%
same,ICE-D InDels (%),[8],43%
"CC(=O)OC[C@H]1O[C@@H](n2ccc(=O)[nH]c2=O)[C@H](OC(C)=O)[C@@H]1OC(C)=O [UTA, uridine triacetate]","Teratoma weight, Weight [g]","[9]; NSG mice fed 8% (w/w) UTA food, 7 weeks after cell injection into hind leg, per mouse",3.11 g and 0.033 g and 2.92 g and 1.54 g and 0.937 g
same,teratoma formation,"[9]; mice fed with UTA, 7 weeks after cell injection",large teratomas
same,increase of uridine serum levels,"[10]; humans and mouse models, administration of prodrug",greater than 10 fold
same,tolerability,"[10]; mice, food enriched with 8% (w/w) UTA",well tolerated
same,luminescence of UMPS^KO/KO K562-derived tumors,[11],only increased in the mice fed with 8% UTA
same,tumor burden of UMPS wild-type K562 cells,[12],increase in tumor burden
B1,ICE InDels (%),[8],39%
same,ICE-D InDels (%),[8],93%
same,type of edits created,[8]; detectable by ICE-D but not by ICE or TIDE,high proportion of large (greater than 30 bp) deletions
same,frequency of InDels in initial screening,[8]; initial sgRNA screening,highest frequency of InDels
